Test results reported in US12570694B2, “Peptides and pharmaceutical, nutraceutical or veterinary compositions for hair loss prevention and/or treatment” (VYTRUS BIOTECH, S.L., priority 2016, dated 2026).

Key:
[1] = system: human dermal fibroblasts (HDF); test: In vitro proliferation of human dermal fibroblasts (BrdU incorporation); assay type: cell-based; settings: basal control = 100%
Experimental: In order to further test the effects of the peptides of the invention in an additional setting, a proliferation assay was conducted onto human dermal fibroblasts (HDF).
Normal Human Dermal Fibroblasts (HDF) were obtained from foreskin samples, surpluses from surgery of young donors (0-3 years old) and stablished by using the standard method of explants growth and enzymic dissociation of proliferating cells. Cells were propagated and grown in Growth Medium (GM): Dulbecco's 1 g/L glucose medium, supplemented with 10% foetal bovine serum (FBS, PAA); 2 mM L-glutamine (Lonza); and antibiotics (100 μg/ml Penicillin and 100 U/ml of Streptomycin, Lonza). For routine subcultivation and propagation of the primary culture, cells were washed twice with PBS ([…] buffered saline, pH 7.4), harvested with trypsin—EDTA (Gibco) and counted in Neubauer chamber before its seeding in a new cell culture flask (Falcon, 75 cm2).
Test products were prepared at the defined final concentrations by its dilution in Maintenance Medium (Dulbecco's 1 g/L glucose medium, supplemented with 1% foetal bovine serum (FBS, PAA); 2 mM L-glutamine (Lonza); and antibiotics (100 μg/ml Penicillin and 100 U/ml of Streptomycin, Lonza), just before each application.
HFD proliferation was assessed determining the proliferation index (%). Cell DNA replication was quantified by means of incorporated bromodeoxiuridine (BrdU) into DNA of treated cells. […] Cells being divided incorporated BrdU that is further detected by means of antibodies and immunocytochemistry detection. […]
Data are depicted in FIG. 6 and FIG. 7, wherein it is shown the proliferation index (%) of HDF, calculated as the percentage of growing in relation to the basal control (non-treated HDF) which is accorded a 100% value of proliferation index. […]
Data are depicted in FIG. 16, wherein it is shown the proliferation index (%) of HDF, calculated as the percentage of growing in relation to the basal control (non-treated HDF) which is accorded a 100% value of proliferation index.

[2] = system: human hair follicle papilla cells (HFDPC); test: In vitro proliferation of hair follicle dermal papilla cells (BrdU incorporation); assay type: cell-based
Experimental: In order to test the effects of the cell-free supernatants, as well as of the peptides of the invention, a proliferation assay was conducted onto human hair follicle papilla cells (CELL APPLICATIONS, INC; Normal human hair follicles from temporal scalp. Single donor: Ref. 602-05a. Lot. 2092.).
The culture media was a Papilla Cell Basal Medium supplemented with the Growth Supplements kit (Relative composition: Fetal bovine serum, growth factors and antibiotics. Application: 6% v/v).
HFDPC proliferation was assessed determining the proliferation index (%). Cell DNA replication was quantified by means of incorporated bromodeoxiuridine (BrdU) into DNA of treated cells. BrdU assay allows measuring cell proliferation based on cell capability of incorporating BrdU during S-phase of the cell cycle. Cells being divided incorporated BrdU that is further detected by means of antibodies and immunocytochemistry detection.
Cells were seeded at confluence in a 96-well plate. After stabilization and synchronization of cell cultures the tested products were added (at the final concentration indicated in Table 1 of Examples. After that, BrdU was added to cultures and HFDPC were incubated at 37° C. until complete BrdU incorporation. BrdU amounts were proportional to the number of cell divisions and thus to the growth of the treated culture.
Data are depicted in FIG. 1, FIG. 2 and FIG. 3, wherein it is shown the proliferation index (%) of HFDPC, calculated as the percentage of growing in relation to the basal control (non-treated HFDPC) which is accorded a 100% value of proliferation index.

CH3—C(O)—YIYT-NH2 (Ac-YIYT-NH2) [SEQ ID NO: 6, in vivo: dissolved 0.025% w/w in PBS buffered fortifying solution 2×]
proliferation index of HDF ([1]; Assay 5, FIG. 16, peptide, nutritive solution, or both in combination): can promote cell proliferation | proliferation index of HDF ([1]; FIGS. 6 and 7, 4Aa at 25, 12.5, 1.25 μg/ml, 5Aa at 1.25, 0.63, 0.25 μg/ml): can promote cell proliferation of HDF | proliferation index of HFDPC ([2]; FIG. 1, relative to basal control (non-treated HFDPC) = 100%, concentrations C1/C2 of Table 1): showed the best results | proliferation index of HFDPC ([2]; FIGS. 2 and 3, peptides with or without end-terminal modifications at 5.86, 2.93, 1.46 μg/ml, basal control = 100%): can promote cell proliferation
